Source: ChEMBL document CHEMBL1149286 (J Med Chem, 2004)

Key:
[1] = biological target: T1, 5-hydroxytryptamine receptor 1A (Rattus norvegicus, UniProt P19327); assay: Displacement of [3H]8-OH-DPAT from 5HT1A receptor in Wistar Han rat hippocampal membranes; format: cell membranes, Membrane
T1 sequence (P19327 whole entry): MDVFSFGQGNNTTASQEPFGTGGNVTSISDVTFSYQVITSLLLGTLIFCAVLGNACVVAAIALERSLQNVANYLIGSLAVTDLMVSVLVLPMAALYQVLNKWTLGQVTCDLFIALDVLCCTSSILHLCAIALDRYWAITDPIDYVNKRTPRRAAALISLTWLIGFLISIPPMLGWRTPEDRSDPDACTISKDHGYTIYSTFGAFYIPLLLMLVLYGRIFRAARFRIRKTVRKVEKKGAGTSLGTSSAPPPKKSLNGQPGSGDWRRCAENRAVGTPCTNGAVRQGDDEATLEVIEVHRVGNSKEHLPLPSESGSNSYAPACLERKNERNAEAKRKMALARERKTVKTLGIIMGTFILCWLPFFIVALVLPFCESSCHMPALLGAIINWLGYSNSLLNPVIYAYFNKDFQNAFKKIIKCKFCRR

[2] = biological target: 5-hydroxytryptamine receptor 7 (Rattus norvegicus, UniProt P32305); assay: Displacement of [3H]LSD from rat recombinant 5HT7 receptor expressed in HEK293 cells; format: cell-based
Sequence of 5-hydroxytryptamine receptor 7 (Rattus norvegicus, UniProt P32305) (P32305 whole entry): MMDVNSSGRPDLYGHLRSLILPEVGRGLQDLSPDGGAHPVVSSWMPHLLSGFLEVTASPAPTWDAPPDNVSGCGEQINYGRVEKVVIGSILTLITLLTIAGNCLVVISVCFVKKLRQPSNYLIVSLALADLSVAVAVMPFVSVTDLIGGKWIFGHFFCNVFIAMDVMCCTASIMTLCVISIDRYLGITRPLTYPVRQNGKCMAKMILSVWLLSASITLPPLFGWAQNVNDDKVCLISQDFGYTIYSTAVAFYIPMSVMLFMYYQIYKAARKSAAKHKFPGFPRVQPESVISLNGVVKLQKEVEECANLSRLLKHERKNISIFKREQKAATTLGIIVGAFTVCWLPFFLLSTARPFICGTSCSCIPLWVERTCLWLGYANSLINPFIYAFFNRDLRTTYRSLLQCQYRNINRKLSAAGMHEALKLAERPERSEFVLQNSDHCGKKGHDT

[3] = species on record: Rattus norvegicus; assay: Selectivity for rat 5HT7 receptor over rat 5HT2A receptor
[4] = species on record: Rattus norvegicus; assay: Selectivity for rat 5HT7 receptor over rat 5HT1A receptor
[5] = biological target: 5-hydroxytryptamine receptor 7 (Homo sapiens, UniProt P34969); assay: Agonist activity at 5-carboxamidotryptamine desensitized 5HT7 receptor assessed as relaxation of substance P-induced contraction of Dunkin-Hartley guinea pig ileum; format: functional, tissue-based; parameters: concentration or dose not given beside the values; settings: Cavia porcellus, target entry is the homologue from another species
Sequence of 5-hydroxytryptamine receptor 7 (Homo sapiens, UniProt P34969) (P34969 whole entry): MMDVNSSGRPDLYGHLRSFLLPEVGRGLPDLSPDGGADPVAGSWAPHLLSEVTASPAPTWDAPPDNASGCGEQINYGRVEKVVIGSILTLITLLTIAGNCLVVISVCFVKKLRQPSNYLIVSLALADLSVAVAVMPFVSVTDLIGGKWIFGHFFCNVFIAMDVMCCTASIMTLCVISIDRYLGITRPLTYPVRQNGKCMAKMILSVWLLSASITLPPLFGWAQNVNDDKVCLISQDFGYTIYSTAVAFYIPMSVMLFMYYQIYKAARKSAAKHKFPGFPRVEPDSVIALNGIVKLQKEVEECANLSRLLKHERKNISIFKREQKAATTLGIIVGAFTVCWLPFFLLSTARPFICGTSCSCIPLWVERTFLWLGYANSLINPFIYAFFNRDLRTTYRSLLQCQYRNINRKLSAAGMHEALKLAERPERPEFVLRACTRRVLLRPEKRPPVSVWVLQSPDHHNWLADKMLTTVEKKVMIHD

[6] = biological target: 5-hydroxytryptamine receptor 2A (Rattus norvegicus) (UniProt P14842); assay: (§1) Displacement of [3H]ketanserin from 5HT2A receptor in Wistar Han rat cortex membranes; format: cell membranes; settings: Membrane
Sequence of 5-hydroxytryptamine receptor 2A (Rattus norvegicus) (P14842 whole entry): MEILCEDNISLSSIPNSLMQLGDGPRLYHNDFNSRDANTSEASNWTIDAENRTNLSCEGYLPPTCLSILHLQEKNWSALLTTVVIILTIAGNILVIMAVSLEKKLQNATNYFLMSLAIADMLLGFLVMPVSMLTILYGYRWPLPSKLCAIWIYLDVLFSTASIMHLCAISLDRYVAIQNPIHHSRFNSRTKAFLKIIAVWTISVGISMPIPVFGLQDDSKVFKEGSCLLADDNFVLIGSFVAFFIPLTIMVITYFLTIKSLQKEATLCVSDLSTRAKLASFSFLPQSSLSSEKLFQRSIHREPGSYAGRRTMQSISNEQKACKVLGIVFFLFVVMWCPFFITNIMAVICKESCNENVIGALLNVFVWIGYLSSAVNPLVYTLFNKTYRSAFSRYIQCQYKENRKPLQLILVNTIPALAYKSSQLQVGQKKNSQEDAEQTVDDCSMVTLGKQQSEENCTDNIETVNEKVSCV

[7] = biological target: 5-hydroxytryptamine receptor 2A (Rattus norvegicus, UniProt P14842); assay: as §1; format: cell membranes, Membrane
Sequence of 5-hydroxytryptamine receptor 2A (P14842 whole entry): as above

Compound | Ki [2] | Activity [5] | other results
O=C(CCCCCN1CCN(c2nc3ccccc3[nH]2)CC1)NC1CCCc2ccccc21 (centres undefined) | 356 nM |  | Ki [1]: 2600 nM
COc1ccc2oc(N3CCN(CCCCCC(=O)NC4CCCc5ccccc54)CC3)nc2c1 (centres undefined) | 704 nM |  | 
CSc1ccccc1N1CCN(CCCCCC(=O)NC2CCCc3ccccc32)CC1 (centres undefined) |  | 100% | Selectivity ratio [3]: > 1000; Selectivity ratio [4]: 200
CS(=O)(=O)c1ccccc1N1CCN(CCCCCC(=O)NC2CCCc3ccccc32)CC1 (centres undefined) |  |  | Activity [6]: 38%; Ki [7]: > 4000 nM
O=C(CCCCCN1CCN(c2nc3ccccc3o2)CC1)NC1CCCc2ccccc21 (centres undefined) | 820 nM |  | 
Cc1ccccc1N1CCN(CCCCCC(=O)NC2CCCc3ccccc32)CC1 (centres undefined) |  | 98% | 
COc1ccccc1N1CCN(CCCCCC(=O)NC2CCCc3ccccc32)CC1 (centres undefined) |  | 91% | 
COc1ccccc1N1CCN(CC(=O)NC2CCCc3c(OC)cccc32)CC1 (centres undefined) | > 1000 nM |  | 
NCCc1c[nH]c2ccc(C(N)=O)cc12 |  | 100% | 
O=C(CCCCCN1CCN(c2noc3ccccc23)CC1)NC1CCCc2ccccc21 (centres undefined) | 125 nM |  | Ki [1]: 3900 nM
CC(=O)c1ccccc1N1CCN(CCCCCC(=O)NC2CCCc3ccccc32)CC1 (centres undefined) |  | 79% | 
NC(=O)c1ccccc1N1CCN(CCCCCC(=O)NC2CCCc3ccccc32)CC1 (centres undefined) |  |  | Activity [6]: 9%; Ki [7]: > 4000 nM
O=C(CCCCCN1CCN(c2ccccc2O)CC1)NC1CCCc2ccccc21 (centres undefined) |  | 0% | 
